Test results taken from patent US20230128889A1, “REL/RELA/SPOT SMALL MOLECULES MODULATORS AND SCREENING METHODS” (priority 2020, published 2023).

Assays:
Rel synthetase (ST) = test: Inhibition of Rel synthetase activity: (p)ppGpp production from GDP or GTP and radioactive ATP, TLC; assay type: biochemical; details: enzyme with GDP or GTP and radioactive ATP, absence or presence of compound
Protocol: (§1) As indicated above, the “Yes/No” in the 5th and 6th columns of TABLES A to F indicates whether there is, or respectively is not an inhibition of the synthetase (ST) and/or hydrolase (HD) activity. […] The action of a candidate compound is evaluated based on its effect on the production of (p)ppGpp. Therefore, in order to assess the potential influence of a candidate compound on synthesis activity, the enzyme was mixed with GDP or GTP and radioactive ATP to produce (p)ppGpp in absence or presence of the candidate compound. Subsequently, the reaction is developed by thin layer chromatography (TLC). In an alternative assay that enables determining the effect of a compound on the hydrolysis activity, radioactive (p)ppGpp is incubated with the enzyme and any decrease of the (p)ppGpp spot on TLC is evaluated when the assay is conducted in presence of the compound and compared to control conditions where no candidate compound is added during incubation.

Rel hydrolase (HD) = test: Inhibition of Rel hydrolase activity: decrease of radioactive (p)ppGpp spot on TLC; assay type: biochemical; details: radioactive (p)ppGpp incubated with enzyme, with vs without compound
Protocol: as §1

Row | SMILES | ST (inhibition of the synthetase activity) (Rel synthetase (ST)) | HD (inhibition of the hydrolase activity) (Rel hydrolase (HD))
1 | Cc1c(CC(=O)O)c(=O)oc2cc(O)cc(O)c12 [Compound 1] | No | Yes
2 | O=C(O)CNS(=O)(=O)c1ccc2c(c1)NC(=O)CS2 [Compound 3] | No | Yes
3 | O=C(O)CC(CNC(=O)CCn1nnc2ccccc2c1=O)c1ccc(Cl)cc1 (centres unmarked) [Compound 4] | No | Yes
4 | O=[N+]([O-])c1cccc(CN2CCN(S(=O)(=O)c3ccc4ccccc4c3)CC2)c1 [Compound 5] | No | Yes
5 | O=C(O)C1Cc2ccccc2CN1C(=O)Cn1nnc2ccccc21 (centres unmarked) [Compound 6] | No | Yes
6 | O=C1CCc2cc(-c3csc(NC(=O)c4cccc([N+](=O)[O-])c4)n3)ccc2N1 [Compound 7] | No | Yes
7 | O=C(COc1ccc2ccccc2c1)N1N=C2/C(=C/c3cccc([N+](=O)[O-])c3)CCCC2C1c1cccc([N+](=O)[O-])c1 (centres unmarked) [Compound 8] | No | Yes
8 | O=C(O)C[C@H](NC(=O)COc1ccc2nc3n(c(=O)c2c1)CCC3)C(=O)O [Compound 9] | no | yes
9 | Cc1c(Cc2ccccc2)c(=O)oc2cc(OCC(=O)O)ccc12 [Compound 10] | Yes | No
10 | Cc1cc(OCC(=O)O)c2c(C)c(Cc3ccccc3)c(=O)oc2c1 [Compound 11] | Yes | No
11 | COc1ccc(-c2cc3ccc(OCc4nnn[nH]4)cc3oc2=O)cc1 [Compound 12] | Yes | No
12 | O=c1oc2cc(OCc3nnn[nH]3)ccc2cc1-c1ccccc1 [Compound 13] | Yes | No
13 | O=c1oc2cc(OCc3nnn[nH]3)ccc2cc1-c1ccc(F)cc1 [Compound 14] | Yes | No
14 | Cc1c(Cc2ccccc2)c(=O)oc2cc(OCc3ccc(C(=O)O)cc3)ccc12 [Compound 15] | Yes | No
15 | CCCCCCc1c(C)c2ccc(OCc3nnn[nH]3)cc2oc1=O [Compound 16] | Yes | Yes
16 | Cc1cc(CCc2nnn[nH]2)c2c(C)c(Cc3ccccc3)c(=O)oc2c1 [Compound 17] | Yes | Yes
17 | Cc1c(Cc2ccccc2)c(=O)oc2cc(OCc3nnn[nH]3)ccc12 [Compound 18] | Yes | Yes
18 | Cc1c(Cc2ccccc2)c(=O)oc2cc(OCc3nnn[nH]3)c(Cl)cc12 [Compound 19] | Yes | Yes
19 | O=c1oc2cc(OCc3nnn[nH]3)ccc2cc1-c1ccc(Cl)cc1 [Compound 20] | Yes | Yes
20 | O=c1oc2cc(OCc3nnn[nH]3)ccc2cc1-c1ccc2ccccc2c1 [Compound 21] | Yes | Yes
21 | O=C(Nc1nnn[nH]1)c1ccc2c(Br)cccc2c1 [Compound 22] | Yes | Yes
22 | CC(NC(=O)c1cc([N+](=O)[O-])c[nH]1)c1ccc2ccccc2c1 (centres unmarked) [Compound 23] | Yes | Yes
23 | O=C1N/C(=N\N=C\c2cccc3ccccc23)SC1Cc1ccccc1[N+](=O)[O-] (centres unmarked) [Compound 24] | Yes | Yes
24 | O=C(O)CCNS(=O)(=O)c1ccc2[nH]c(=O)[nH]c2c1 [Compound 25] | No | Yes
25 | CC(Nc1ccc(F)cc1[N+](=O)[O-])c1ccc2[nH]c(=O)[nH]c2c1 (centres unmarked) [Compound 26] | No | Yes
26 | O=C(O)CCS(=O)(=O)c1ccc2[nH]c(=O)oc2c1 [Compound 27] | No | Yes
27 | Cc1nc2cc(CC(=O)N[C@@H]3COCC[C@@H]3OCC(=O)O)ccc2[nH]1 [Compound 28] | No | Yes
28 | COc1ccc2[nH]cc(CCNC(=O)c3nccnc3C(=O)O)c2c1 [Compound 29] | No | Yes

Row | SMILES | ST (inhibition of the synthetase activity) (Rel synthetase (ST)) | HD (inhibition of the hydrolase activity) (Rel hydrolase (HD))
29 | O=C(c1cc(-c2cccc(Cl)c2)[nH]n1)N1CCc2ccc([N+](=O)[O-])cc21 [Compound 30] | No | Yes
30 | O=C(O)/C=C/c1cccc(NC2C(=O)Nc3ccccc32)c1 (centres unmarked) [Compound 31] | No | Yes
31 | O=C(Nc1nnn[nH]1)c1cc(-c2ccc3c(c2)CCO3)[nH]n1 [Compound 32] | No | Yes
32 | O=C1c2ccccc2C(=O)N1CCCc1nc(-c2cccc([N+](=O)[O-])c2)no1 [Compound 33] | No | Yes
33 | O=C(O)CCCC(=O)Nc1cc2[nH]c(=O)[nH]c2cc1N1CCCC1 [Compound 35] | no | yes
34 | O=C(CC(C(=O)O)C1CCCO1)NCCc1ccc2c(c1)OCO2 (centres unmarked) [Compound 36] | no | yes
35 | COc1ccc(C=C2C(=O)Nc3ccc(C(=O)O)cc32)cc1 [Compound 37] | Yes | No
36 | O=C1Nc2ccccc2/C1=N\c1ccc(O)c([N+](=O)[O-])c1 [Compound 38] | Yes | No
37 | O=C1Nc2ccccc2/C1=N\c1cccc([N+](=O)[O-])c1 [Compound 39] | Yes | No
38 | O=C(O)Cn1cc(/C=C2/C(=O)Nc3ccccc32)c2ccccc21 [Compound 40] | Yes | No
39 | O=C1Nc2ccccc2/C1=N/N=C/c1ccc(-c2ccccc2[N+](=O)[O-])o1 [Compound 41] | Yes | Yes
40 | O=C(O)C1CCN(S(=O)(=O)c2ccc3[nH]c(=O)oc3c2)CC1 [Compound 42] | Yes | Yes
41 | O=C(Nc1ccc(-n2cnc3ccccc32)nc1)c1ccc([N+](=O)[O-])o1 [Compound 43] | Yes | Yes
42 | O=C(O)CCC(=Cc1ccc(OCC(=O)O)cc1)c1nc2ccccc2s1 [Compound 44] | Yes | Yes
43 | O=C1OCc2ccc(-c3ccc(/C=N/Nc4nnn[nH]4)o3)cc21 [Compound 45] | Yes | Yes
44 | CSCCC(NS(=O)(=O)c1ccc2c3c(cccc13)C(=O)N2)C(=O)O (centres unmarked) [Compound 47] | Yes | Yes
45 | O=C(O)CNS(=O)(=O)c1ccc2c3c(cccc13)C(=O)N2 [Compound 48] | Yes | Yes
46 | O=C(O)c1cc(NS(=O)(=O)c2ccc3c4c(cccc24)C(=O)N3)cnc1Cl [Compound 49] | Yes | Yes
47 | O=C1c2cccc3cc([N+](=O)[O-])cc(c23)C(=O)N1O [Compound 50] | Yes | No
48 | O=C(O)CCNS(=O)(=O)c1cc2c3c(cccc3c1)C(=O)NC2=O [Compound 51] | Yes | Yes
49 | Cn1c(=O)[nH]c(=O)c2[nH]c(SCC(=O)O)nc21 [Compound 52] | No | Yes
50 | Cc1c(C(=O)N(CCC(=O)O)CC2CCCO2)sc2ncn(C)c(=O)c12 (centres unmarked) [Compound 53] | No | Yes
51 | Cc1[nH]c2ccnn2c(=O)c1CC(=O)N(CCC(=O)O)CC1CCCO1 (centres unmarked) [Compound 54] | No | Yes
52 | O=C(O)c1cccc(Nc2ncnc3[nH]cnc23)c1 [Compound 55] | No | Yes
53 | Cc1nnc2ccc(N3CCN(C(=O)Nc4ccccc4[N+](=O)[O-])CC3)nn12 [Compound 56] | No | Yes
54 | Cc1ccc(-n2cnnn2)cc1OCc1nnn[nH]1 [Compound 57] | No | Yes
55 | Fc1cccc(-c2nnn(Cc3nnn[nH]3)n2)c1 [Compound 58] | No | Yes
